Structures are written as SMILES.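 Assay format: 96-well plates, 48-hour exposure. Abbreviation: GI50, concentration required for 50% inhibition of growth.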 The source made the active and inactive calls. No stated cut-off is given here; in the data, active = GI50 up to about 1.1 µM and inactive = higher.

Test systems include SK-MEL-2; KM12; OVCAR-8; IGROV-1; HCT-116; T47D; HOP-62; EKVX; MDA-MB-435; HCT-15; SN12C; NCI-H460; SNB-75; A498; MDA-MB-231; OVCAR-5; U-251; OVCAR-4; MOLT-4.
Common to all, as to experiment: NCI anticancer screen, dose series, 48 h

In the case of `CCCCCCCCCCCCC(=O)NCC(=O)NC(Cc1ccccc1)C(=O)Oc1ccc([N+](=O)[O-])cc1` (stereo not drawn), the GI50 is > 100 µM (inactive) with SK-MEL-2; 55.6 µM (inactive) in the assay on KM12; 48.2 µM (inactive) with OVCAR-8; 87.9 µM (inactive) in the assay on IGROV-1; 30.9 µM (inactive) in the assay with HCT-116; 92.9 µM (inactive) in the assay on T47D. For the same molecule, the GI50 is > 100 µM (inactive) in the assay with HOP-62; 70.6 µM (inactive) with EKVX; 65.8 µM (inactive) with MDA-MB-435; 38.1 µM in the assay on HCT-15; 70.1 µM (inactive) in the assay with SN12C; > 100 µM (inactive) with NCI-H460. In addition, the GI50 was 18.5 µM (inactive) in the assay on SNB-75, > 100 µM (inactive) in the assay with A498, 48.4 µM (inactive) with MDA-MB-231 and > 100 µM (inactive) in the assay with OVCAR-5.
`C/C(O[Si](C(C)C)(C(C)C)C(C)C)=C(\C)C(=O)N(C)c1ccccc1Cl`: the GI50 in the assay on KM12, in the assay on OVCAR-8, with IGROV-1, with HCT-116, with U-251 and with T47D was > 100 µM (inactive) throughout. Moreover, the GI50 in the assay on HOP-62 is > 100 µM (inactive); with OVCAR-4, > 100 µM (inactive); with EKVX, > 100 µM (inactive); in the assay on MDA-MB-435 it was > 100 µM (inactive); in the assay with HCT-15, over 100 µM; with SN12C it was > 100 µM (inactive). For the same molecule, the GI50 with NCI-H460 is > 100 µM (inactive); in the assay with SNB-75 it was 81.5 µM (inactive); in the assay with A498, > 100 µM (inactive); with MDA-MB-231, > 100 µM (inactive); in the assay with OVCAR-5 it was > 100 µM (inactive); with MOLT-4, > 100 µM (inactive).
On to `C/C(=C\CNc1nc(Cl)nc2[nH]cnc12)CO`, for which the GI50 with KM12, in the assay on OVCAR-8, in the assay with IGROV-1, in the assay on HCT-116, with T47D and in the assay with HOP-62 was > 100 µM (inactive) throughout. Besides, the GI50 in the assay with OVCAR-4 was > 100 µM (inactive); in the assay with EKVX it was > 100 µM (inactive); in the assay with MDA-MB-435, > 100 µM (inactive); in the assay on SN12C, > 100 µM (inactive); with NCI-H460 it was > 100 µM (inactive); in the assay on SNB-75 it was 96.4 µM (inactive). Besides, the GI50 in the assay on A498, in the assay with MDA-MB-231, with OVCAR-5 and with MOLT-4 was > 100 µM (inactive) each time.
In the case of `CCOC(=O)N(C)CCC1CC=CC(=O)C1c1cccc(OC)c1OC` (stereo not drawn), the GI50 was 13.7 µM (inactive) in the assay with SK-MEL-2; 14.1 µM (inactive) with KM12; 21.3 µM (inactive) with OVCAR-8; 36.1 µM (inactive) in the assay with IGROV-1; 14.4 µM (inactive) in the assay with HCT-116; 16.7 µM (inactive) in the assay with U-251. For the same molecule, the GI50 is 21.4 µM (inactive) in the assay on T47D; 24.4 µM (inactive) with HOP-62; 28 µM (inactive) in the assay on OVCAR-4; 25.8 µM (inactive) with EKVX; 10.6 µM (inactive) with MDA-MB-435; 14 µM with HCT-15. In addition, the GI50 in the assay with SN12C was 17.3 µM (inactive); in the assay on NCI-H460 it was 16.7 µM (inactive); in the assay with A498, 33.3 µM (inactive); in the assay with MDA-MB-231, 26.1 µM (inactive); with OVCAR-5, 17.3 µM (inactive); with MOLT-4 it was 22.5 µM (inactive).
